Measurements: patent publication US9125939B2, “Carbostyril derivatives and mood stabilizers for treating mood disorders” (Otsuka Pharmaceutical Co., Ltd., priority 2003, dated 2015)

Key:
[1] = system: acute mania in adolescents with bipolar disorder; test: double-blind, randomized, placebo-controlled study as adjunctive treatment to divalproex for adolescent mania (Examples 7 and 8); assay type: in vivo, human
[2] = system: acute manic or mixed bipolar episodes; conditions: cotherapy vs monotherapy
[3] = DVP + about 10 mg/day, 6 weeks, vs DVP+placebo

## O=C1CCc2ccc(OCCCCN3CCN(c4cccc(Cl)c4Cl)CC3)cc2N1 [aripiprazole, 7-{4-[4-(2,3-dichlorophenyl)-1-piperazinyl]butoxy}-3,4-dihydro-2(1H)-quinolinone]
[1]; [3]
  YMRS response rate: significantly greater
  reduction in YMRS scores from baseline to endpoint: greater reduction
[1]; DVP combination vs DVP+placebo
  Sedation, rated as mild or moderate: more common
  safety measures, group differences from baseline to endpoint: No significant group differences
[1]; treatment of mania
  tolerability in combination with DVP: well tolerated
[2]
  HAMD-21 total scores: total scores more than monotherapy
